Assay results as given in patent US20250380697A1, “ISOXAZOLINE DERIVATIVE COMPOUND AND INSECTICIDAL COMPOSITION COMPRISING SAME” (KYUNG NONG CORPORATION, priority 2022, published 2025).

Experiments:
Format in all cases: in vivo
[1] = tested on: Spodoptera litura; experiment: Pesticidal activity against Spodoptera litura, leaf-dipping method; conditions: 48 h, read-out: mortality rate, Spodoptera litura
[2] = tested on: Spodoptera frugiperda; experiment: Pesticidal activity against Spodoptera frugiperda, leaf-dipping method; conditions: counted 24, 48, 72 hours, time not given, read-out: mortality rate, Spodoptera frugiperda
Procedure: Cabbage (Daiya) leaves were cut into pieces with a diameter of 5.8 cm, dipped in the pesticide composition where the compound of Synthesis Example 2 was diluted (the solvent=distilled water+acetone 50,000 mg/L+Triton X-100 100 mg/L) for 30 seconds, and sufficiently shade-dried. Then, the shade-dried cabbage leaves were placed in a petri dish (8.8 cm in diameter) covered with filter paper and repeatedly inoculated 3-5 times with the second to the third instar larvae of Spodoptera frugiperda, 10 larvae per inoculation. In particular, the Spodoptera frugiperda larvae used were those which were provided by Chung Buk University (Korea) and bred indoors for multiple generations. Then, the Spodoptera frugiperda larvae were stored under the conditions of 16 hours of light and 8 hours of dark, 25±1° C. and 50-60% relative humidity, and the number of live Spodoptera frugiperda larvae was counted 24, 48, and 72 hours after the inoculation. Thereafter, the larvae mortality rate was calculated in the same manner as in Test Example 1 above.

[3] = tested on: Plutella xylostella; experiment: Pesticidal activity against Plutella xylostella, leaf-dipping method; conditions: 48 h, read-out: mortality rate, Plutella xylostella
[4] = tested on: Frankliniella occidentalis; experiment: Pesticidal activity against Frankliniella occidentalis, spray method; conditions: 48 h, read-out: mortality rate, Frankliniella occidentalis
Method in brief: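 Ten F. occidentalis adults per dish sprayed with compound at 100 ppm in water/acetone 50,000 mg/L/Triton X-100 100 mg/L, then given a soybean cotyledon. Held at 25±1 °C, 50-60% RH, 16:8 h light:dark; live adults counted 48 h after inoculation to give mortality.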

[5] = tested on: Rhopobota naevana; experiment: Pesticidal activity against Rhopobota naevana, spray method; conditions: spray on apple leaves, counted 24, 48, 72 hours, time not given, read-out: mortality rate, Rhopobota naevana
Procedure: Apple leaves were collected along with the stems, and the leaves of 3-4 base were cut into 5 cm×5 cm×5 cm pieces and placed in a tray oasis submerged in water. Then, the pesticide composition where the compound of Synthesis Example 2 was diluted (the solvent=distilled water+acetone 50,000 mg/L+Triton X-100 100 mg/L) was loaded into a 150 mL small sprayer and sprayed to the apple leaves, and 1 hour thereafter, the […] larvae were repeatedly inoculated 5-6 times, one per apple leaf. In particular, the Rhopobota naevana larvae were collected in the R&D Center of Kyung Nong Co., Ltd. (Gyeongju, Korea), and they were used after acclimatization indoors for 24 hours. Then, the Rhopobota naevana larvae were stored under the conditions of 16 hours of light and 8 hours of dark, 25±1° C. and relative humidity of 50-60%, and the number of live Rhopobota naevana larvae was counted 24, 48, and 72 hours after the inoculation. Thereafter, the larvae mortality rate was calculated in the same manner as in Test Example 1 above.

[6] = tested on: Grapholita molesta; experiment: Pesticidal activity against Grapholita molesta, spray method; conditions: spray on apples, counted 24, 72, 192 hours, time not given, read-out: mortality rate, Grapholita molesta
Procedure: The pesticide composition where the compound of Synthesis Example 2 was diluted (the solvent=distilled water+acetone 50,000 mg/L+Triton X-100 100 mg/L) was directly sprayed on apples using a CO2 Sprayer® [a nozzle type: Teejet8002VS (a flat fan type), pressure: 800 psi), and then apples were collected 1 hour later, and Grapholita molesta larvae were repeatedly inoculated 5-6 times, 3 per apple. In particular, the Grapholita molesta larvae were collected in the R&D Center of Kyung Nong Co., Ltd. (Gyeongju, Korea), and they were used after acclimatization indoors for 24 hours. Then, the Grapholita molesta larvae were stored under the conditions of 16 hours of light and 8 hours of dark, 25±1° C. and relative humidity of 50-60%, and the number of live Grapholita molesta larvae was counted 24, 72, and 192 hours after the inoculation. Thereafter, the larvae mortality rate was calculated in the same manner as in Test Example 1 above.

[7] = tested on: Manulea degenerella; experiment: Pesticidal activity against Manulea degenerella, spray method; conditions: third instar larvae, counted 24, 48, 72 hours, time not given
Source text: A water-soaked filter paper (9.0 cm in diameter) was placed in an insect breeding dish (Lab Guide®) with a diameter of 9.0 cm and a height of 4.0 cm, and then parafilm (width 4.0 cm×height 4.0 cm) was placed thereon. Before treating with a pesticide composition, 10 of the third instar Manulea degenerella larvae were inoculated per breeding dish using a No. 4 brush. In particular, Manulea degenerella larvae used were those collected in Icheon, Gyeonggi-do (Korea). Then, the pesticide composition where the compound of Synthesis Example 2 was diluted (the solvent=distilled water+acetone 50,000 mg/L+Triton X-100 100 mg/L) was loaded into a 100 mL small sprayer, and sprayed 10-12 times at a distance of 30 cm and a height of 50 cm, and one cotyledons of a persimmon tree, which is a host plant, were added one at a time. Then, the Manulea degenerella larvae were stored under the conditions of 16 hours of light and 8 hours of darkness, 25±1° C., and relative humidity of 50-60%, and the number of live Manulea degenerella larvae was counted 24, 48, and 72 hours after the inoculation. Thereafter, the larvae mortality rate was calculated in the same manner as in Test Example 1 above.

Row | Structure (SMILES) | mortality at 0.1 ppm [1] | mortality at 1 ppm [1] | mortality at 10 ppm [1] | mortality at 0.1 ppm [2] | mortality at 1 ppm [2] | mortality at 10 ppm [2] | mortality at 0.1 ppm [3] | mortality at 1 ppm [3] | mortality at 10 ppm [3] | mortality at 1 ppm [4] | mortality at 5 ppm [4] | mortality at 10 ppm [4] | mortality at 0.1 ppm [5] | mortality at 1 ppm [5] | mortality at 10 ppm [6] | mortality rate, Manulea degenerella ([7]; 0.1 ppm) | mortality rate, Manulea degenerella ([7]; 1 ppm)
1 | Cc1cc(C2=NOC(c3cc(Cl)cc(C(F)(F)F)c3)(C(F)(F)F)C2)ccc1C(=O)NC(=O)C1CC1 (racemic) [Synthesis Example 2] | 100% | 100% | 100% | 100% | 100% | 100% | 100% | 100% | 100% | 100% | 100% | 100% | 100% | 100% | 85% | 100% | 100%
2 | CON=CNC(=O)c1ccc(C2=NOC(c3cc(Cl)cc(Cl)c3)(C(F)(F)F)C2)cc1C (stereo not drawn) [Comparative Example 1, fluxametamide] | 90% | 100% | 100% | 100% | 100% | 100% | 100% | 100% | 100% | 7% | 13% | 50% | 83% | 100% | 85% | 0% | 16%%
3 | CNC(=O)c1cc(Cl)cc(C)c1NC(=O)c1cc(Br)nn1-c1ncccc1Cl [Comparative Example 2, chlorantraniliprole] | – | – | – | – | – | – | 21% | 100% | 100% | – | – | – | 100% | 100% | 85% | 100% | 100%
